Target: enzyme PDE-5 (Homo sapiens, UniProt O76074)
Test: Phosphodiesterase 5 (PDE-5) inhibition activity in in vitro tests
Assay type: biochemical
Conditions: read-out: CI5C
Description: The following data illustrate the inhibiting activity of the compounds of the present invention on the enzyme PDE-5.

Going from CCCc1nn(C)c2c(=O)[nH]c(-c3cc(S(=O)(=O)N4CCCN(CCCO)CC4)ccc3OCC)nc12 [Compound 4] to CCCc1nn(C)c2c(=O)[nH]c(-c3cc(S(=O)(=O)N4CCCN(CCC(=O)O)CC4)ccc3OCC)nc12 [Compound 7], the IC50 falls from 1.8 nM to 1.2 nM (1.5-fold).

CCCc1nn(C)c2c(=O)[nH]c(-c3cc(S(=O)(=O)N4CCCN(C)CC4)cnc3OCC)nc12 [Compound 6, 5-(2-ethoxy-5-(4-methyl-1,4-diazepan-1-ylsulfonyl)pyridin-3-yl)-1-methyl-3-propyl-1H-pyrazolo[4,3-d] pyrimidin-7(6H)-one] and CCCc1nn(C)c2c(=O)[nH]c(-c3cc(S(=O)(=O)N4CCCN(C)CC4)ccc3OCC)nc12 [Compound 3, 5-(2-ethoxy-5-(4-methyl-1,4-diazepan-1-ylsulfonyl)phenyl)-1-methyl-3-propyl-1H-pyrazolo[4,3-d]pyrimidin-7(6H)-one] are within 1.5-fold of each other in IC50: 2.2 nM for the first, 2.8 nM for the second.

Compared with CCCc1nn(C)c2c(=O)[nH]c(-c3cc(S(=O)(=O)N4CCCN(C(C)=O)CC4)ccc3OCC)nc12 [Compound 2, 5-(5-(4-acetyl-1,4-diazepan-1-ylsulfonyl)-2-ethoxyphenyl)-1-methyl-3-propyl-1H-pyrazolo[4,3-d]pyrimidin-7(6H)-one], CCCc1nn(C)c2c(=O)[nH]c(-c3cc(S(=O)(=O)N4CCCN(C(=O)OC(C)(C)C)CC4)ccc3OCC)nc12 [Compound 5, tert-butyl 4-(4-ethoxy-3-(1-methyl-7-oxo-3-propyl-6,7-dihydro-1H-pyrazolo[4,3-d]pyrimidin-5-yl)phenylsulfonyl)-1,4-diazepane-1-carboxylate] is 1.8-fold lower in IC50: 6.4 nM for the first, 3.5 nM for the second. The second is the more potent here.

Work on CCCc1nn(C)c2c(=O)[nH]c(-c3cc(S(=O)(=O)N4CCCNCC4)ccc3OCC)nc12 [Compound 1, 5-(5-(1,4-diazepan-1-ylsulfonyl)-2-ethoxiphenyl)-1-methyl-3-propyl-1H-pyrazolo[4,3-d]pyrimidin-7(6H)-one] yielded an IC50 of 4.2 nM.

— patent publication EP2578588A1 (World-Trade Import-Export Wtie, AG, priority 2010, dated 2011)
